Measurements from patent US20250099420A1, “SMALL MOLECULE MODULATORS OF GPR139 COMPLEX” (University of Florida Research Foundation, Incorporated, priority 2022, published 2025).
pEC50: −log10 of the molar value. Like-named read-outs stand apart in the source and are kept apart here.

Assays:
[1] = system: parental HEK cells; experiment: HEK parental Agonist Counterscreen Assay (non-transfected cells); format: cell-based; conditions: for Averaged Max % Response (±St. Dev.): activity relative to known control
From the text: The high control for the agonist counterscreen was Forskolin not acetylcholine.

[2] = target: T1, GPR139 (Homo sapiens, UniProt Q6DWJ6); experiment: GPR139 Agonist titration / agonist counterscreen assay (calcium detection, HEK-GPR139 cells); format: cell-based; set-up: expressed in transfected cells; host or cells: HEK Aequorin cells, Maxcyte transient transfection; conditions: GPR139 Agonist Activity; for Averaged Max % Response (±St. Dev.): activity relative to known control; for pEC50: read-out: EC50
T1 sequence (Q6DWJ6 1-353): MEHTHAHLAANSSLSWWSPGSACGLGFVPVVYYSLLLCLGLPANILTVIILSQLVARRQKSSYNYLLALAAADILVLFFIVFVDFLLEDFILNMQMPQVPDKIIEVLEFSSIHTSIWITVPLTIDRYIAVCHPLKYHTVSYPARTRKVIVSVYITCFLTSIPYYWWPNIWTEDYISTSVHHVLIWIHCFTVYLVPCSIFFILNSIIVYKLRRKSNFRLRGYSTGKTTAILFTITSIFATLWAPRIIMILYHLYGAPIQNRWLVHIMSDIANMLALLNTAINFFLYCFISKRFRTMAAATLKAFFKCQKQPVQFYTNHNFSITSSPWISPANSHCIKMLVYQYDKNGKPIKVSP
Description: GPR activity was assessed using a calcium detection assay. […] Negative control samples were treated with DMSO. […] Intracellular calcium was measured using Calcium 5.

[3] = HEK Agonist Activity section of Table 4 (parental HEK counterscreen)
[4] = values printed in E-notation without unit
[5] = Homo sapiens, HEK293, HEK Agonist Activity, parental non-transfected HEK cells
[6] = Homo sapiens, HEK293, HEK Agonist Activity section of Table 4 (parental HEK counterscreen)

Compound | Lipophilic Efficiency (logD) ([1]; HEK Agonist Activity section) | Lipophilic Efficiency (logP) ([1]; HEK Agonist Activity section) | Averaged Max % Response (±St. Dev.) [2] | Lipophilic Efficiency (logD) ([2]; based on logD) | Lipophilic Efficiency (logP) ([2]; based on logP) | Hill Slope ([2]; fitted dose-response curve) | Efficiency Ligand ([2]; ligand efficiency) | pEC50 [2, 4] | Lipophilic Efficiency (logD) ([1]; HEK Agonist Activity) | Lipophilic Efficiency (logP) ([1]; HEK Agonist Activity) | Efficiency Ligand [2] | Hill Slope [2] | Lipophilic Efficiency (logD) [2] | Lipophilic Efficiency (logP) [2] | pEC50 ([2]; HEK-GPR139 cells) | pEC50 [1, 3] | Averaged Max % Response (±St. Dev.) ([1]; HEK Agonist Activity section) | Averaged Max % Response (±St. Dev.) ([1]; HEK Agonist Activity) | pEC50 [1, 5] | pEC50 [1, 6]
COc1ccc(-c2nnn(CC(=O)NCCc3c[nH]c4ccccc34)n2)cc1OC [SR-01000339494] | – | – | 107.79 ± 9.70% | 5.30 | 5.30 | 0.87 | 0.38 | – | 1.97 | 1.97 | – | – | – | – | – | – | – | 13.92 ± 7.54% | < 4.85 | –
CN(C)C(CNC(=O)Nc1ccc(Cl)c(Cl)c1)c1cccnc1 (stereo not drawn) [SR-01000127953] | 2.35 | 1.96 | 96.92 ± 13.57% | 4.13 | 3.73 | 0.56 | 0.40 | 6.63 | – | – | – | – | – | – | – | – | 10.89 ± 5.56% | – | – | < 4.85
CCn1c(=O)n(CC(=O)NCC2COc3ccccc3O2)c(=O)c2ccccc21 (stereo not drawn) [SR-01000589950] | – | – | 90.30 ± 31.36% | 5.98 | 5.98 | 0.72 | 0.36 | 7.44 | 3.39 | 3.39 | – | – | – | – | – | – | – | −9.62 ± 21.31% | < 4.85 | –
CCOC(=O)c1ccc(NC(=O)Cn2c(C)c(C=O)c3ccccc32)cc1 [SR-01000248261] | 1.37 | 1.37 | 81.40 ± 9.66% | – | – | – | – | – | – | – | 0.30 | 1.06 | 2.28 | 2.28 | 5.77 | < 4.85 | 19.46 ± 6.76% | – | – | –
Cc1cccnc1NC(=O)Cn1ncc2c1-c1ccccc1OC2 [SR-01000152365] | 2.49 | 2.49 | 96.01 ± 17.34% | 4.77 | 4.77 | 0.99 | 0.42 | 7.14 | – | – | – | – | – | – | – | < 4.85 | 18.44 ± 8.07% | – | – | –
CNc1ccc(CCNC(=O)Cn2c3ccccc3c3nc(=O)cc(C)n32)cc1 [SR-01000139601] | 2.04 | 2.04 | 109.30 ± 18.80% | – | – | – | – | – | – | – | 0.31 | 0.85 | 3.57 | 3.57 | 6.38 | – | −14.37 ± 9.70% | – | – | < 4.85
COc1cc(OC)cc(C(=O)NNC(=O)CCc2ccccc2)c1 [SR-01000359572] | 2.65 | 2.65 | 100.90 ± 10.01% | – | – | – | – | – | – | – | 0.37 | 0.98 | 4.18 | 4.18 | 6.38 | – | 6.12 ± 4.61% | – | – | < 4.85
O=C(CN1CCN(C/C=C/c2ccccc2)CC1)NCCCc1ccccc1 [SR-01000062290] | 1.34 | 1.10 | 128.31 ± 15.25% | 3.75 | 3.51 | 0.74 | 0.36 | 7.23 | – | – | – | – | – | – | – | – | 11.38 ± 4.42% | – | – | < 4.83
CC12C=CC3(CN(Cc4ccccc4)C(=O)C3C1C(=O)NCC1COc3ccccc3O1)O2 (stereo not drawn) [SR-01000582967] | 2.93 | 2.93 | 117.27 ± 2.34% | – | – | – | – | – | – | – | 0.27 | 0.38 | 4.47 | 4.47 | 6.43 | < 4.88 | −6.63 ± 2.99% | – | – | –
CC(C)C(C)(C#N)NC(=O)CSc1nnc(Cc2cccc3ccccc23)n1N (stereo not drawn) [SR-01000052065] | 2.71 | 2.62 | 98.20 ± 7.98% | 4.63 | 4.54 | 0.53 | 0.33 | 6.74 | – | – | – | – | – | – | – | < 4.82 | 8.92 ± 9.62% | – | – | –
COc1ccc(NC(=O)NCC2CC(=O)N(c3ccccc3)C2)cc1 (stereo not drawn) [SR-01000912290] | – | – | 103.55 ± 8.13% | 6.11 | 6.11 | 1.13 | 0.44 | 7.84 | 3.12 | 3.12 | – | – | – | – | – | – | – | 20.29 ± 5.75% | < 4.85 | –
Cc1ccc2c(c1)-c1c(cnn1CC(=O)Nc1ncccc1C)CO2 [SR-01000106321] | 1.97 | 1.97 | 96.96 ± 1.13% | – | – | – | – | – | – | – | 0.34 | 1.43 | 3.26 | 3.26 | 6.14 | < 4.85 | 6.49 ± 5.13% | – | – | –

Further lines, with some results ahead:

Lipophilic Efficiency (logD) ([1]; HEK Agonist Activity section) | Lipophilic Efficiency (logP) ([1]; HEK Agonist Activity section) | Averaged Max % Response (±St. Dev.) [2] | Lipophilic Efficiency (logD) ([2]; based on logD) | Lipophilic Efficiency (logP) ([2]; based on logP) | Hill Slope ([2]; fitted dose-response curve) | Efficiency Ligand ([2]; ligand efficiency) | pEC50 [2, 4] | Lipophilic Efficiency (logD) ([1]; HEK Agonist Activity) | Lipophilic Efficiency (logP) ([1]; HEK Agonist Activity) | Efficiency Ligand [2] | Hill Slope [2] | Lipophilic Efficiency (logD) [2] | Lipophilic Efficiency (logP) [2] | pEC50 ([2]; HEK-GPR139 cells) | Compound | pEC50 [1, 3] | Averaged Max % Response (±St. Dev.) ([1]; HEK Agonist Activity section) | Averaged Max % Response (±St. Dev.) ([1]; HEK Agonist Activity) | pEC50 [1, 5] | pEC50 [1, 6]
2.49 | 2.49 | 109.51 ± 16.91% | 4.53 | 4.53 | 1.07 | 0.40 | 6.89 | – | – | – | – | – | – | – | Cc1ccc2c(c1)-c1c(cnn1CC(=O)Nc1ccccn1)CO2 [SR-01000152429] | < 4.85 | −0.18 ± 21.55% | – | – | –
0.41 | 0.41 | 110.27 ± 5.24% | 2.48 | 2.48 | 0.46 | 0.29 | 6.91 | – | – | – | – | – | – | – | O=C(C1CC(Cc2cccc3ccccc23)=NO1)N1CCC(C(O)Cc2ccccc2)CC1 (stereo not drawn) [SR-01000185712] | < 4.85 | 9.02 ± 5.86% | – | – | –
1.79 | 1.78 | 88.73 ± 9.49% | – | – | – | – | – | – | – | 0.31 | 1.77 | 2.95 | 2.95 | 6.01 | COc1cc(OC)cc(C(=O)NNC(=O)COc2cc(C)c(Cl)c(C)c2)c1 [SR-01000358286] | < 4.85 | 17.27 ± 10.49% | – | – | –
2.72 | 2.72 | 81.52 ± 3.66% | 4.72 | 4.72 | 0.99 | 0.37 | 6.85 | – | – | – | – | – | – | – | O=C(CN1C(=O)NC2(CCCc3ccccc32)C1=O)N1CCCCCC1 (stereo not drawn) [SR-01000075116] | < 4.84 | 4.31 ± 1.95% | – | – | –
2.88 | 2.88 | 85.23 ± 10.03% | 4.79 | 4.79 | 0.63 | 0.38 | 6.76 | – | – | – | – | – | – | – | CC(NC(=O)Cn1ncc2ccccc21)c1ccc2c(c1)OCCO2 (stereo not drawn) [SR-01000152760] | < 4.85 | 0.48 ± 8.40% | – | – | –
1.77 | 1.77 | 84.79 ± 6.25% | 3.83 | 3.83 | 0.88 | 0.51 | 6.91 | – | – | – | – | – | – | – | O=C(NCCn1ccc2ccccc21)c1cccs1 [SR-01000124129] | – | −9.08 ± 5.27% | – | – | < 4.85
1.73 | 1.73 | 95.13 ± 3.75% | 4.08 | 4.08 | 1.31 | 0.39 | 7.21 | – | – | – | – | – | – | – | COc1ccc(CCC(=O)Nc2ccc(-c3cn[nH]c3)c(OC)c2)cc1 [SR-00000005955] | – | 18.59 ± 8.23% | – | – | < 4.85
